The values that follow come from patent US20220370416A1, “COMPOUNDS AND METHODS FOR TARGETED DEGRADATION OF KRAS” (Arvinas Operations, Inc., priority 2020, published 2022).

Experiment [1] concerns the target T1, HiBit-KRAS^G12C (Homo sapiens, UniProt P01116, G12C). The experiment in a line: HiBit degradation assay in MiaPaCa-2 HiBit-KRas^G12C cells. Format: cell-based. The note with it: 24 hours; for KRas^G12C-HiBiT (MiaPaCa; 0.1% DMSO) DMax / KRas^G12C-HiBiT (MiaPaCa; 0.5% DMSO) DMax / DC50: MiaPaCa-2 HiBit-KRas^G12C cells; for KRas^G12C-HiBiT (MiaPaCa; 0.1% DMSO) DMax / KRas^G12C-HiBiT (MiaPaCa; 0.5% DMSO) DMax / Dmax: maximum degradation; for Dmax: MIA PaCa-2, MiaPaCa-2 HiBit-KRas^G12C cells; for DC50: read-out: KRas^G12C-HiBiT (MiaPaCa; 0.5% DMSO) IC50. As for the experimental part: Reagents. SW1573 (CRL-2170) and MiaPaCa-2 (CRL-1420) cells were purchased from ATCC. Both cell lines are […] for the G12C mutation in KRAS. SW1573 cells were cultured in DMEM+F12+Glutamax (+Sodium Bicarbonate, +sodium pyruvate, Thermofisher scientific, #10565) supplemented with 10% FBS (Thermofisher scientific, #2060357) and 1% Antibiotic-Antimycotic (Thermofisher scientific, #15240096). MiaPaCa-2 cells were cultured in DMEM+Glutamax media (Thermofisher scientific, #10566) supplemented with 10% FBS (Thermofisher scientific, #2060357) and 1% Antibiotic-Antimycotic (Thermofisher scientific, #15240096). For degradation assays, 384 well plates were purchased from Corning (Corning® CellBIND® 384-well Flat Clear Bottom Black Polystyrene Microplates, Low Flange, #3770). Gambogic acid was purchased from Selleckchem (#S2448). Alamar blue was purchased from Thermofisher scientific (A50101) and used according to manufacturer instructions. The Nano-Glo® HiBit Lytic Detection System and Nano-Glo® HiBit Blotting System were purchased from Promega (#N3050 and #N2410) and used according to manufacturer instructions.
To create the MiaPaCa-2 HiBit-KRAS^G12C cell line, CRISPR-Cas9 was used to insert the HiBit tag onto the N-terminus of one or more of the four endogenous KRAS^G12C alleles. After knock-in of the tag, individual clones were isolated by single cell dilution and screened for HiBit insertion by PCR. Clones containing the HiBit tag were sequenced and one was identified that contained the desired HiBit-KRAS^G12C sequence at one allele while the remaining three KRAS^G12C alleles were unaffected. This line was used for all subsequent studies.
Either SW1573 HiBit-KRas^G12C or MiaPaCa-2 HiBit-KRas^G12C cells were plated at 9000 cells/well in a 384 well plate (Corning #3770). Exemplary heterobifunctional molecules and positive controls were diluted in the appropriate cell media and applied to the plated cells resulting in a final concentration titration of 10 μM to 20 nM in either 0.1% or 0.5% dimethyl sulfoxide (DMSO). Gambogic acid was used as a positive control for cytotoxicity and titrated from 10 μM to 78 nM. All assays were performed in triplicate. Cells were treated with compounds for 24 hours at 37° C. in an incubator containing 5% CO2. Following treatment, alamar blue was used to determine if any compounds led to a loss in cell viability after 24 hours. The 10× alamar blue reagent was added to a final concentration of 1× as recommended by the manufacturer and cells were returned to the incubator for 4 hours. Plates were then allowed to equilibrate to room temperature and fluorescence was measured using a Perkin-Elmer EnVision. After completion of the fluorescence read, the liquid from each well was removed and the cells were washed with PBS. The Nano-Glo® HiBiT detection reagent was prepared according to the manufacturer's instructions and added to each well after the PBS wash was removed. Following incubation at room temperature for 45 minutes, the luminescence was read using the ultra-sensitive luminescence aperture on the Envision instrument.
Fluorescence values from the alamar blue treatment were normalized to the DMSO only control for each compound titration. We hypothesized that compounds that led to a ≥50% loss in cell viability of the KRAS-independent SW1573 HiBit-KRas^G12C cells were likely generally cytotoxic and loss of HiBit-KRAS^G12C signal from these compounds may be due to lower cell number and not specific KRAS^G12C degradation. These points were therefore excluded from the data analysis for degradation. […]
(HiBiT is a short tag that completes a luciferase, so light tracks the accessible tagged protein.)

The target in experiment [2] is T1, HiBit-KRAS^G12C. The experiment in a line: HiBit degradation assay in SW1573 HiBit-KRas^G12C cells. Format: cell-based. On the set-up: expressed in transfected cells; host or cells: SW1573 (clone E6), modified pcDNA3.1 vector, TK promoter. The note with it: 24 hours; for KRas^G12C-HiBit (SW1573; 0.1% DMSO) Dmax** / DC50: SW1573 HiBit-KRas^G12C; for Dmax: SW1573, SW1573 HiBit-KRas^G12C. The essentials:
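SW1573 cells stably expressing N-terminally HiBit-tagged KRAS G12C, under the TK promoter, were treated 24 h at 37 °C with 10 μM to 20 nM compound in 0.1% or 0.5% DMSO. Residual HiBit luminescence normalised to DMSO and fitted with a 4-parameter model for DC50 and Dmax. Points with ≥50% viability loss (alamar blue) excluded.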

The mark [3] stands for this setting: 0.1% DMSO, read-out: KRas^G12C-HIBit (SW1573; 0.1% DMSO) DC50*.
[4] abbreviates: read-out: KRas^G12C-HiBiT (SW1573; 0.5% DMSO) IC50***, 0.5% DMSO.

T1 sequence (P01116 1-186 isoform P01116-2 G12C limits assumed): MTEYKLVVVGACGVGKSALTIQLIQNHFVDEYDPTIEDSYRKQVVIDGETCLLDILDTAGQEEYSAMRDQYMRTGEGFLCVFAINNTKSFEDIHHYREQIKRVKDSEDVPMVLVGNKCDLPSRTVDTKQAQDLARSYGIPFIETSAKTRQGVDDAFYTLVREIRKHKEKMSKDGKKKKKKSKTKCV

For `C=CC(=O)N1CCN(c2nc(OCCN3CCC(OCCOc4cc([C@H](C(=O)N5C[C@H](O)C[C@H]5C(=O)N[C@@H](C)c5ccc(-c6scnc6C)cc5)C(C)C)on4)CC3)nc3c(F)c(-c4cc(O)cc5ccccc45)c(Cl)cc23)C[C@@H]1CC#N` (atropisomer, axis not shown) [Compound 3, (2S,4R)-1-((R)-2-(3-(2-((1-(2-(((S)-4-((S)-4-acryloyl-3-(cyanomethyl)piperazin-1-yl)-6-chloro-8-fluoro-7-(3-hydroxynaphthalen-1-yl)quinazolin-2-yl)oxy)ethyl)piperidin-4-yl)oxy)ethoxy)isoxazol-5-yl)-3-methylbutanoyl)-4-hydroxy-N-((S)-1-(4-(4-methylthiazol-5-yl)phenyl)ethyl)pyrrolidine-2-carboxamide], the “KRas^G12C-HiBiT (MiaPaCa; 0.1% DMSO) DMax” value on HiBit-KRAS^G12C [1] (0.1% DMSO) is “A (A ≥ 70)”. The “KRas^G12C-HiBiT (MiaPaCa; 0.5% DMSO) DMax” value at HiBit-KRAS^G12C [1] (0.5% DMSO) was “A (A ≥ 70)”. The “KRas^G12C-HiBit (SW1573; 0.1% DMSO) Dmax**” value on HiBit-KRAS^G12C [2] (0.1% DMSO) is reported as “A (A ≥ 70)”. Further, at HiBit-KRAS^G12C [2] (setting [3]), the DC50 is less than 100 nM.

`C=CC(=O)N1CCN(c2nc(OCCN3CCC(OCCOc4cc([C@H](C(=O)N5C[C@H](O)C[C@H]5C(=O)N[C@@H](C)c5ccc(-c6scnc6C)cc5)C(C)C)on4)CC3)nc3c(F)c(-c4cc(O)cc5ccccc45)c(Cl)cc23)C[C@@H]1CC#N` (atropisomer, axis not shown) [Compound 4, (2S,4R)-1-((R)-2-(3-(2-((1-(2-(((R)-4-((S)-4-acryloyl-3-(cyanomethyl)piperazin-1-yl)-6-chloro-8-fluoro-7-(3-hydroxynaphthalen-1-yl)quinazolin-2-yl)oxy)ethyl)piperidin-4-yl)oxy)ethoxy)isoxazol-5-yl)-3-methylbutanoyl)-4-hydroxy-N-((S)-1-(4-(4-methylthiazol-5-yl)phenyl)ethyl)pyrrolidine-2-carboxamide]: at HiBit-KRAS^G12C [1] (0.1% DMSO), the “KRas^G12C-HiBiT (MiaPaCa; 0.1% DMSO) DMax” value is “C (C ≤ 35)”. Further, the “KRas^G12C-HiBiT (MiaPaCa; 0.5% DMSO) DMax” value at HiBit-KRAS^G12C [1] (0.5% DMSO) is “B (35 < B < 70)”. Also, the “KRas^G12C-HiBit (SW1573; 0.1% DMSO) Dmax**” value on HiBit-KRAS^G12C [2] (0.1% DMSO) is on record as “B (35 < B < 70)”. In addition, the DC50 at HiBit-KRAS^G12C [2] (setting [3]) lay within 100 to 1000 nM.

In the case of `C=CC(=O)N1CCN(c2nc(OCCN3CCC(COCC(=O)N[C@H](C(=O)N4C[C@H](O)C[C@H]4C(=O)N[C@@H](C)c4ccc(-c5scnc5C)cc4)C(C)(C)C)CC3)nc3c(F)c(-c4cc(O)cc5ccccc45)c(Cl)cc23)CC1` (atropisomer, axis not shown) [Compound 9, (2S,4R)-1-[(2S)-2-(2-{[1-(2-{[6-chloro-8-fluoro-7-(3-hydroxynaphthalen-1-yl)-4-[4-(prop-2-enoyl)piperazin-1-yl]quinazolin-2-yl]oxy}ethyl)piperidin-4-yl]methoxy}acetamido)-3,3-dimethylbutanoyl]-4-hydroxy-N-[(1S)-1-[4-(4-methyl-1,3-thiazol-5-yl)phenyl]ethyl]pyrrolidine-2-carboxamide], the “KRas^G12C-HiBiT (MiaPaCa; 0.1% DMSO) DMax” value at HiBit-KRAS^G12C [1] (0.1% DMSO) is on record as “A (A ≥ 70)”. Moreover, the “KRas^G12C-HiBiT (MiaPaCa; 0.5% DMSO) DMax” value at HiBit-KRAS^G12C [1] (0.5% DMSO) is listed as “A (A ≥ 70)”. Moreover, on HiBit-KRAS^G12C [2] (0.1% DMSO), the “KRas^G12C-HiBit (SW1573; 0.1% DMSO) Dmax**” value is on record as “A (A ≥ 70)”. Also, the DC50 at HiBit-KRAS^G12C [2] (setting [3]) lay within 100 to 1000 nM.

For the compound `C=CC(=O)N1CCN(c2nc(O[C@H](C)CN3CCC(OCCOCC(=O)N[C@H](C(=O)N4C[C@H](O)C[C@H]4C(=O)N[C@@H](C)c4ccc(-c5scnc5C)cc4)C(C)(C)C)CC3)nc3c(F)c(-c4cc(O)cc5ccccc45)c(Cl)cc23)CC1` (atropisomer, axis not shown) [Compound 86, (2S,4R)-1-[(2S)-2-{2-[2-({1-[(2R)-2-{[6-chloro-8-fluoro-7-(3-hydroxynaphthalen-1-yl)-4-[4-(prop-2-enoyl)piperazin-1-yl]quinazolin-2-yl]oxy}propyl]piperidin-4-yl}oxy)ethoxy]acetamido}-3,3-dimethylbutanoyl]-4-hydroxy-N-[(1S)-1-[4-(4-methyl-1,3-thiazol-5-yl)phenyl]ethyl]pyrrolidine-2-carboxamide], the Dmax was 35 to 70% on HiBit-KRAS^G12C [1] (0.1% DMSO, read-out: KRas^G12C-HiBiT (MiaPaCa; 0.1% DMSO) DMax); 35 to 70% on HiBit-KRAS^G12C [1] (0.5% DMSO, read-out: KRas^G12C-HiBiT (MiaPaCa; 0.5% DMSO) DMax); 35 to 70% on HiBit-KRAS^G12C [2] (0.1% DMSO, read-out: KRas^G12C-HiBit (SW1573; 0.1% DMSO) Dmax**); 35 to 70% on HiBit-KRAS^G12C [2] (0.5% DMSO, read-out: KRas^G12C-HiBiT (SW1573; 0.5% DMSO) Dmax**). The DC50 at HiBit-KRAS^G12C [2] (setting [3]) lay within 100 to 1000 nM.

`C=CC(=O)N1CCN(c2nc(OCCN3CCC4(CC3)CN(c3cc([C@@H](C(=O)N5C[C@H](O)C[C@H]5C(=O)N[C@@H](C)c5ccc(-c6ccnn6C)cc5)C(C)C)on3)C4)nc3c(F)c(-c4cc(O)cc5ccccc45)c(Cl)cc23)C[C@@H]1CC#N` (atropisomer, axis not shown) [Compound 101, (2S,4R)-1-[(2S)-2-(3-{7-[2-({6-chloro-4-[(3S)-3-(cyanomethyl)-4-(prop-2-enoyl)piperazin-1-yl]-8-fluoro-7-(3-hydroxynaphthalen-1-yl)quinazolin-2-yl}oxy)ethyl]-2,7-diazaspiro[3.5]nonan-2-yl}-1,2-oxazol-5-yl)-3-methylbutanoyl]-4-hydroxy-N-[(1S)-1-[4-(1-methyl-1H-pyrazol-5-yl)phenyl]ethyl]pyrrolidine-2-carboxamide]: the DC50 at HiBit-KRAS^G12C [1] (0.5% DMSO) and on HiBit-KRAS^G12C [2] (setting [4]) was more than 1000 nM in each case.

On to `C=C(F)C(=O)N1CCN(c2nc(OCCN3CCC4(CC3)CN(c3cc([C@@H](C(=O)N5C[C@H](O)C[C@H]5C(=O)N[C@@H](C)c5ccc(-c6ccnn6C)cc5)C(C)C)on3)C4)nc3c(F)c(-c4cc(O)cc5ccccc45)c(Cl)cc23)C[C@@H]1CC#N` (atropisomer, axis not shown) [Compound 103, (2S,4R)-1-[(2S)-2-(3-{7-[2-({6-chloro-4-[(3S)-3-(cyanomethyl)-4-(2-fluoroprop-2-enoyl)piperazin-1-yl]-8-fluoro-7-(3-hydroxynaphthalen-1-yl)quinazolin-2-yl}oxy)ethyl]-2,7-diazaspiro[3.5]nonan-2-yl}-1,2-oxazol-5-yl)-3-methylbutanoyl]-4-hydroxy-N-[(1S)-1-[4-(1-methyl-1H-pyrazol-5-yl)phenyl]ethyl]pyrrolidine-2-carboxamide], for which the values for the DC50 on HiBit-KRAS^G12C [1] (0.5% DMSO) and on HiBit-KRAS^G12C [2] (setting [4]) were more than 1000 nM and 100 to 1000 nM, respectively.
